Measurements taken from patent US5726189A, “Method for imaging nicotinic acetylcholinergic receptors in the brain using radiolabeled pyridyl-7-azabicyclo [2.2.1]heptanes” (priority 1996, dated 1998).

Test system: nAChRs in mouse brain
Assay: regional distribution of [18F]FPH in mouse brain after tail vein injection
Assay type: in vivo
Description: The utility of [^18 F] FPH as an agent to label, in vivo, nAChRs in mouse brain was tested. Mice received 0.4 μCi of [^18 F]FPH (sp. act >2000 mCi/μmol) by tail vein injection. The regional distribution of the tracer in brain was assessed in the absence and presence of unlabeled epibatidine. […] In in vitro assays, the Ki for unlabeled FPH against nAChRs labeled with [^3 H] epibatidine was approximately 3 pM. […] FPH would be an excellent ligand for imaging nAChRs in living human brain.

[1] = 30 minutes post injection, tail vein, 0.4 μCi

`[18F]c1ccc(C2CC3CCC2N3)cn1` (racemic) [[^18 F]FPH, (±)-exo-2-(2-[^18 F]fluoro-5-pyridyl)-7-azabicyclo[2.2.1]heptane] showed an uptake in cerebellum [1] of less than 3 % ID/g, an uptake in cortex [1] of 6.2 % ID/g and an uptake in hippocampus [1] of 6 % ID/g. For the same compound, the “uptake in superior colliculus” value [1] was 10 % ID/g, the uptake in thalamus [1] was 11 % ID/g and the “binding in all regions after pretreatment with unlabeled epibatidine” value (pretreatment with unlabeled epibatidine 20 μg/kg) was ~ 3 % ID/g.
